# In patent US9615574B2, “Compositions of dibromomalonamide and their use as biocides” (Dow Global Technologies LLC, priority 2013, dated 2017):
# Assays:
# [1] = test system: Desulfovibrio longus ATCC 51456; assay: MBC of DBMAL, THPS and blends against anaerobic bacteria, 24 hour contact time; assay type: cell-based; settings: alone or in the blend, 40° C., 10^7 to 10^8 CFU/mL
# Method: (§1) The synergism of the biocides combination of the present invention was determined using the method described by Kull, F. C, et al. in Applied Microbiology 9:538-541 (1961).
# Inside an anaerobic chamber (Bactron anaerobic chamber), a deoxygenated sterile salt solution (3.1183 g of NaCl, 1.3082 mg of NaHCO3, 47.70 mg of KCl, 72.00 mg of CaCl2, 54.49 mg of MgSO4, 172.28 mg of Na2SO4, 43.92 mg of Na2CO3 in 1 L water, pH was adjusted to 7) was inoculated with Desulfovibrio longus ATCC 51456 to a final bacterial concentration of 10^7 to 10^8 CFU/mL. Aliquots of this cell suspension were then treated with DBMAL, THPS, and DBMAL/THPS blends, at selected active concentrations. After the treated cell suspensions were incubated at 40° C. for 24 hours, viable bacteria in each treated and untreated (control) cell suspensions were enumerated using a serial dilution method in Modified Baar's Medium (2.0 g of MgSO4, 5.7 g of Sodium citrate.2H2O, 1.0 g of CaSO4, 1.0 g of NH4Cl, 3.5 g of Sodium lactate, 1.0 g of Yeast extract, 0.5 g of K2HPO4, 0.1 g of Sodium Thioglycolate, 0.02 g of Fe(NH4)2(SO4)2, 20 g of NaCl in 1 L deionized water). The biocidal efficacy was determined by minimum tested biocide concentration for bacteria kill in the aliquots (MBC).
# Table 1 summarizes the synergistic effect of each biocide and their blends, and the Synergy Index of each combination.
# [2] = test system: Pseudomonas aeruginosa ATCC 10145 and Staphylococcus aureus ATCC 6538; assay: MBC of DBMAL, THPS and blends against aerobic bacteria, 1 hr and 2 hr contact time; assay type: cell-based; settings: alone or in the blend; for MBC (ppm active) DBMAL: DBMAL concentration; for MBC (ppm active) THPS: THPS concentration
# Method: as §1
# Sterile salt solution (0.2203 g of CaCl2, 0.1847 g of MgSO4, and 0.2033 g of NaHCO3 in 1 L water, adjust pH to 7.4) was inoculated with approximately 10^7 CFU/mL of Pseudomonas aeruginosa ATCC 10145 and Staphylococcus aureus ATCC 6538.
# Aliquots of the cell suspension were then treated with DBMAL, THPS, and combinations of these actives at selected concentrations.
# After incubating at 37° C. for 1 hr, viable bacteria in each treated and untreated (control) cell suspensions were enumerated using a serial dilution method in Tryptic Soy Broth. The biocidal efficacy was determined by minimum biocide concentration for bacteria kill in the aliquots (MBC). Synergy Index was then calculated. Table 2 summarizes the MBC of each biocide and their blends, and the Synergy Index of each combination.
# The same test procedure in Example 2 was used to evaluate the biocidal efficacy of DBMAL, THPS and their blends against aerobic bacteria in a 2-hr contact assay. Table 3 summarizes the MBC of each biocide and their blends, and the Synergy Index of each combination.
molecule,measurement,setting,value
"NC(=O)C(Br)(Br)C(N)=O [1:0, 2,2-dibromomalonamide]",MBC (ppm active) DBMAL,[1]; DBMAL concentration,200.0 ppm active
same,MBC (ppm active) DBMAL,[2]; 2-hr contact assay,77.8 ppm active
same,MBC (ppm active) DBMAL,"[2]; 37° C., 1 hr contact time",>100.0 ppm active
tetrakis(hydroxymethyl)phosphonium sulfate [0:1],MBC (ppm active) THPS,[1]; THPS concentration,50.0 ppm active
same,MBC (ppm active) THPS,[2]; 2-hr contact assay,29.6 ppm active
same,MBC (ppm active) THPS,"[2]; 37° C., 1 hr contact time",100.0 ppm active
